Measured values taken from patent US9603889B2, “IAP antagonists” (BRISTOL-MYERS SQUIBB COMPANY, priority 2012, dated 2017).

Biological target: XIAP BIR3 (N-His-Tb-BIR3(241-356, XIAP)) (Homo sapiens (Human), UniProt P98170)
Assay type: binding
Settings: 130 nM N-His-Tb-BIR3(241-356, XIAP), 1.4 nM fluoresceinated modified SMAC peptide, 60 minutes room temperature; read-out: XIAP BIR3 FPA IC50

Sequence of XIAP BIR3 (N-His-Tb-BIR3(241-356, XIAP)) (P98170 241-356): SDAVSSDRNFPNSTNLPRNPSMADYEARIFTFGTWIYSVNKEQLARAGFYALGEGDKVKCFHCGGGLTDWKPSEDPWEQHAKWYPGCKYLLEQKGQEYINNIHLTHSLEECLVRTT

Row | SMILES | IC50 [µM]
1 | CN[C@@H](C)C(=O)N[C@H](C(=O)N1C[C@@H](NC(=O)c2ccc(CN(CCc3ccc4ccccc4c3)C(=O)[C@@H]3Cc4ccccc4CN3C(=O)[C@@H](NC(=O)[C@H](C)NC)C(C)(C)C)cc2)C[C@H]1C(=O)N[C@@H]1CCCc2ccccc21)C(C)(C)C [Example 12, (S)-2-((S)-3,3-Dimethyl-2-((S)-2-(methylamino)propanamido)butanoyl)-N-(4-(((3S,5S)-1-((S)-3,3-dimethyl-2-((S)-2-(methyl-amino)propanamido)butanoyl)-5-(((R)-1,2,3,4-tetrahydro-naphthalen-1-yl)carbamoyl)pyrrolidin-3-yl)carbamoyl)benzyl)-N-(2-(naphthalen-2-yl)ethyl)-1,2,3,4-tetrahydro-isoquinoline-3-carboxamide] | 0.09
2 | CN[C@@H](C)C(=O)N[C@H](C(=O)N1C[C@@H](NC(=O)c2ccc(CN(Cc3cccc(Cl)c3Cl)C(=O)[C@@H]3Cc4ccccc4CN3C(=O)[C@@H](NC(=O)[C@H](C)NC)C(C)(C)C)cc2)C[C@H]1C(=O)N[C@@H]1CCCc2ccccc21)C(C)(C)C [Example 11, (S)-N-(2,3-Dichlorobenzyl)-2-((S)-3,3-dimethyl-2-((S)-2-(methylamino)propanamido)butanoyl)-N-(4-(((3S,5S)-1-((S)-3,3-dimethyl-2-((S)-2-(methylamino)propanamido)butanoyl)-5-(((R)-1,2,3,4-tetrahydro-naphthalen-1-yl)carbamoyl)pyrrolidin-3-yl)carbamoyl)benzyl)-1,2,3,4-tetra-hydroisoquinoline-3-carboxamide] | 0.07
3 | CN[C@@H](C)C(=O)N[C@H](C(=O)N1CCc2ccccc2[C@H]1C(=O)N(Cc1ccc(C(=O)N[C@H]2C[C@@H](C(=O)N[C@@H]3CCCc4ccccc43)N(C(=O)[C@@H](NC(=O)[C@H](C)NC)C(C)(C)C)C2)cc1)[C@H](C)c1ccccc1F)C(C)(C)C [Example 19, (S)-2-((S)-3,3-Dimethyl-2-((S)-2-(methylamino)propanamido)butanoyl)-N-(4-(((3S,5S)-1-((S)-3,3-dimethyl-2-((S)-2-(methylamino)propanamido)butanoyl)-5-(((R)-1,2,3,4-tetra-hydronaphthalen-1-yl)carbamoyl)pyrrolidin-3-yl)carbamoyl)benzyl)-N-((R)-1-(2-fluorophenyl)ethyl)-1,2,3,4-tetrahydro-isoquinoline-1-carboxamide] | 0.29
4 | CN[C@@H](C)C(=O)N[C@H](C(=O)N1C[C@@H](NC(=O)c2ccc(CN(C(=O)[C@@H]3Cc4ccccc4CN3C(=O)[C@@H](NC(=O)[C@H](C)NC)C(C)(C)C)[C@H](C)Cc3ccccc3F)cc2)C[C@H]1C(=O)N[C@@H]1CCCc2ccccc21)C(C)(C)C [Example 25, (S)-2-((S)-3,3-Dimethyl-2-((S)-2-(methylamino)propanamido)butanoyl)-N-(4-(((3S,5S)-1-((S)-3,3-dimethyl-2-((S)-2-(methylamino)propanamido)butanoyl)-5-(((R)-1,2,3,4-tetrahydro-naphthalen-1-yl)carbamoyl)pyrrolidin-3-yl)carbamoyl)benzyl)-N-((R)-1-(2-fluorophenyl)propan-2-yl)-1,2,3,4-tetrahydro-isoquinoline-3-carboxamide] | 0.06
5 | CN[C@@H](C)C(=O)N[C@H](C(=O)N1C[C@@H](NC(=O)c2ccc(CN(C(=O)[C@@H]3Cc4ccccc4CN3C(=O)[C@@H](NC(=O)[C@H](C)NC)C(C)(C)C)[C@H](C)c3cccc(OC)c3)cc2)C[C@H]1C(=O)N[C@@H]1CCCc2ccccc21)C(C)(C)C [Example 3, (S)-2-((S)-3,3-Dimethyl-2-((S)-2-(methylamino)propanamido)butanoyl)-N-(4-(((3S,5S)-1-((S)-3,3-dimethyl-2-((S)-2-(methylamino)propanamido)butanoyl)-5-(((R)-1,2,3,4-tetrahydronaphthalen-1-yl)carbamoyl)pyrrolidin-3-yl)carbamoyl)benzyl)-N-((R)-1-(3-methoxyphenyl)ethyl)-1,2,3,4-tetrahydroisoquinoline-3-carboxamide] | 0.06
6 | CN[C@@H](C)C(=O)N[C@H](C(=O)N1C[C@@H](NC(=O)c2ccc(CN(C(=O)[C@@H]3Cc4ccccc4CN3C(=O)[C@@H](NC(=O)[C@H](C)NC)C(C)(C)C)[C@H](C)C(c3ccccc3)c3ccccc3)cc2)C[C@H]1C(=O)N[C@@H]1CCCc2ccccc21)C(C)(C)C [Example 21, (S)-2-((S)-3,3-Dimethyl-2-((S)-2-(methylamino)propanamido)butanoyl)-N-(4-(((3S,5S)-1-((S)-3,3-dimethyl-2-((S)-2-(methylamino)propanamido)butanoyl)-5-(((R)-1,2,3,4-tetra-hydronaphthalen-1-yl)carbamoyl)pyrrolidin-3-yl)carbamoyl)benzyl)-N-((R)-1,1-diphenylpropan-2-yl)-1,2,3,4-tetrahydro-isoquinoline-3-carboxamide] | 0.29
7 | CC[C@H](c1ccccc1)N(Cc1ccc(C(=O)N[C@H]2C[C@@H](C(=O)N[C@@H]3CCCc4ccccc43)N(C(=O)[C@@H](NC(=O)[C@H](C)NC)C(C)(C)C)C2)cc1)C(=O)[C@@H]1Cc2ccccc2CN1C(=O)[C@@H](NC(=O)[C@H](C)NC)C(C)(C)C [Example 20, (S)-2-((S)-3,3-Dimethyl-2-((S)-2-(methylamino)propanamido)butanoyl)-N-(4-(((3S,5S)-1-((S)-3,3-dimethyl-2-((S)-2-(methylamino)propanamido)butanoyl)-5-(((R)-1,2,3,4-tetrahydro-naphthalen-1-yl)carbamoyl)pyrrolidin-3-yl)carbamoyl)benzyl)-N-((R)-1-phenylpropyl)-1,2,3,4-tetra-hydroisoquinoline-3-carboxamide] | 0.11
8 | CN[C@@H](C)C(=O)N[C@H](C(=O)N1C[C@@H](NC(=O)c2ccc(CN(C(=O)[C@@H]3Cc4ccccc4CN3C(=O)[C@@H](NC(=O)[C@H](C)NC)C(C)(C)C)[C@H](C)c3ccccc3C)cc2)C[C@H]1C(=O)N[C@@H]1CCCc2ccccc21)C(C)(C)C [Example 28, (S)-2-((S)-3,3-Dimethyl-2-((S)-2-(methylamino)propanamido)butanoyl)-N-(4-(((3S,5S)-1-((S)-3,3-dimethyl-2-((S)-2-(methylamino)propanamido)butanoyl)-5-(((R)-1,2,3,4-tetra-hydronaphthalen-1-yl)carbamoyl)pyrrolidin-3-yl)carbamoyl)benzyl)-N-((R)-1-(o-tolyl)ethyl)-1,2,3,4-tetrahydro-isoquinoline-3-carboxamide] | 0.16
9 | CN[C@@H](C)C(=O)N[C@H](C(=O)N1Cc2ccccc2C[C@H]1CN(CCc1ccccc1)C(=O)c1ccc(C(=O)N[C@H]2C[C@@H](C(=O)N[C@@H]3CCCc4ccccc43)N(C(=O)[C@@H](NC(=O)[C@H](C)NC)C(C)(C)C)C2)cc1)C(C)(C)C [Example 10, N^1-(((S)-2-((S)-3,3-Dimethyl-2-((S)-2-(methylamino)propanamido)butanoyl)-1,2,3,4-tetrahydroisoquinolin-3-yl)methyl)-N^4-((3S,5S)-1-((S)-3,3-dimethyl-2-((S)-2-(methylamino)propanamido)butanoyl)-5-(((R)-1,2,3,4-tetrahydronaphthalen-1-yl)carbamoyl)pyrrolidin-3-yl)-N^1-phenethylterephthalamide] | 0.06
